Patent US20170190671A1, “BIS(ARYL)CATECHOL DERIVATIVES AS HERBICIDES” (E I DU PONT DE NEMOURS AND COMPANY, priority 2014, published 2017)

Key:
Test in all cases: Test E postemergence
Assay type in all cases: in vivo
Conditions in all cases: scale 0 to 100
[1] = tested on: field bindweed (Convolvulus arvensis)
Source text: (§1) Seeds of plant species selected from corn (Zea mays), soybean (Glycine max), velvetleaf (Abutilon theophrasti), cocklebur (common cocklebur, Xanthium strumarium), lambsquarters (Chenopodium album), wild poinsettia (Euphorbia heterophylla), palmer pigweed (Amaranthus palmeri), waterhemp (common waterhemp, Amaranthus rudis), surinam grass (Brachiaria decumbens), large (Lg) crabgrass (Digitaria sanguinalis), Brazilian crabgrass (Digitaria horizontalis), fall panicum (Panicum dichotomiflorum), giant foxtail (Setaria faberii), green foxtail (Setaria viridis), goosegrass (Eleusine indica), johnsongrass (Sorghum halepense), ragweed (common ragweed, Ambrosia elatior), barnyardgrass (Echinochloa crus-galli), sandbur (southern sandbur, Cenchrus echinatus), arrowleaf sida (Sida rhombifolia), Italian ryegrass (Lolium multiflorum), dayflower (Virginia (VA) dayflower, Commelina virginica), field bindweed (Convolvulus arvensis), morningglory (Ipomoea coccinea), nightshade (eastern black nightshade, Solanum ptycanthum), kochia (Kochia scoparia), yellow nutsedge (Cyperus esculentus), horseweed (Conyza canadensis), and hairy beggarticks (Bidens pilosa), were planted into a silt loam soil and treated preemergence with test chemicals formulated in a non-phytotoxic solvent mixture which included a surfactant.
(§2) At the same time, plants from these crop and weed species and also waterhemp_RES1, (ALS & Triazine resistant common waterhemp, Amaranthus rudis), and waterhemp_RES2, (ALS & HPPD resistant common waterhemp, Amaranthus rudis) were planted in pots containing Redi-Earth® planting medium (Scotts Company, 14111 Scottslawn Road, Marysville, Ohio 43041) comprising spaghnum peat moss, vermiculite, wetting agent and starter nutrients were treated with postemergence applications of test chemicals formulated in the same manner. Plants ranged in height from 2 to 18 cm for postemergence treatments (1- to 4-leaf stage). Treated plants and controls were maintained in a greenhouse for 14 to 21 days, after which time all species were compared to controls and visually evaluated. Plant response ratings, summarized in Table E, are based on a scale of 0 to 100 where 0 is no effect and 100 is complete control. A dash (-) response means no test result.

[2] = tested on: waterhemp_RES1 (ALS & Triazine resistant common waterhemp, Amaranthus rudis)
Source text: as §1, §2

[3] = tested on: arrowleaf sida (Sida rhombifolia)
Source text: as §1, §2

[4] = tested on: waterhemp (common waterhemp, Amaranthus rudis)
Source text: as §1, §2

[5] = tested on: hairy beggarticks (Bidens pilosa)
Source text: as §1, §2

[6] = tested on: waterhemp_RES2 (ALS & HPPD resistant common waterhemp, Amaranthus rudis)
Source text: as §1, §2

[7] = tested on: palmer pigweed (Amaranthus palmeri)
Source text: as §1, §2

[8] = tested on: wild poinsettia (Euphorbia heterophylla)
Source text: as §1, §2

[9] = tested on: kochia (Kochia scoparia)
Source text: as §1, §2

[10] = tested on: Brazilian crabgrass (Digitaria horizontalis)
Source text: as §1, §2

[11] = tested on: fall panicum (Panicum dichotomiflorum)
Source text: as §1, §2

[12] = tested on: sandbur (southern sandbur, Cenchrus echinatus)
Source text: as §1, §2

[13] = tested on: Italian ryegrass (Lolium multiflorum)
Source text: as §1, §2

Fc1cccc(Oc2ncc(C(F)(F)F)cn2)c1Oc1ncc(Cl)cn1 [Compound 42, 5-chloro-2-[2-fluoro-6-[[5-(trifluoromethyl)-2-pyrimidinyl]oxy]phenoxy]pyrimidine]
Plant response rating, Field Bindweed ([1]; 16 g ai/ha): 40 | Plant response rating, Field Bindweed ([1]; 31 g ai/ha): 50 | Plant response rating, Field Bindweed ([1]; 62 g ai/ha): 60 | Plant response rating, Field Bindweed ([1]; 125 g ai/ha): 70 | Plant response rating, Waterhemp_RES1 ([2]; 16 g ai/ha): 60 | Plant response rating, Waterhemp_RES1 ([2]; 31 g ai/ha): 75 | Plant response rating, Waterhemp_RES1 ([2]; 62 g ai/ha): 75 | Plant response rating, Waterhemp_RES1 ([2]; 125 g ai/ha): 90 | Plant response rating, Arrowleaf Sida ([3]; 16 g ai/ha): 75 | Plant response rating, Arrowleaf Sida ([3]; 31 g ai/ha): 85 | Plant response rating, Arrowleaf Sida ([3]; 62 g ai/ha): 95 | Plant response rating, Arrowleaf Sida ([3]; 125 g ai/ha): 98 | Plant response rating, Waterhemp ([4]; 16 g ai/ha): 75 | Plant response rating, Waterhemp ([4]; 31 g ai/ha): 85 | Plant response rating, Waterhemp ([4]; 62 g ai/ha): 90 | Plant response rating, Waterhemp ([4]; 125 g ai/ha): 95 | Plant response rating, Beggarticks ([5]; 16 g ai/ha): 50 | Plant response rating, Beggarticks ([5]; 31 g ai/ha): 60 | Plant response rating, Beggarticks ([5]; 62 g ai/ha): 60 | Plant response rating, Beggarticks ([5]; 125 g ai/ha): 70 | Plant response rating, Waterhemp_RES2 ([6]; 16 g ai/ha): 50 | Plant response rating, Waterhemp_RES2 ([6]; 31 g ai/ha): 65 | Plant response rating, Waterhemp_RES2 ([6]; 62 g ai/ha): 85 | Plant response rating, Waterhemp_RES2 ([6]; 125 g ai/ha): 95 | Plant response rating, Pigweed, Palmer ([7]; 16 g ai/ha): 80 | Plant response rating, Pigweed, Palmer ([7]; 31 g ai/ha): 85 | Plant response rating, Pigweed, Palmer ([7]; 62 g ai/ha): 95 | Plant response rating, Pigweed, Palmer ([7]; 125 g ai/ha): 100 | Plant response rating, Poinsettia, Wild ([8]; 16 g ai/ha): 50 | Plant response rating, Poinsettia, Wild ([8]; 31 g ai/ha): 60 | Plant response rating, Poinsettia, Wild ([8]; 62 g ai/ha): 70 | Plant response rating, Poinsettia, Wild ([8]; 125 g ai/ha): 70 | Plant response rating, Kochia ([9]; 16 g ai/ha): 70 | Plant response rating, Kochia ([9]; 31 g ai/ha): 80 | Plant response rating, Kochia ([9]; 62 g ai/ha): 95 | Plant response rating, Kochia ([9]; 125 g ai/ha): 95 | Plant response rating, Crabgrass, Brazil ([10]; 16 g ai/ha): 10 | Plant response rating, Crabgrass, Brazil ([10]; 31 g ai/ha): 10 | Plant response rating, Crabgrass, Brazil ([10]; 62 g ai/ha): 20 | Plant response rating, Crabgrass, Brazil ([10]; 125 g ai/ha): 30 | Plant response rating, Panicum, Fall ([11]; 16 g ai/ha): 10 | Plant response rating, Panicum, Fall ([11]; 31 g ai/ha): 15 | Plant response rating, Panicum, Fall ([11]; 62 g ai/ha): 20 | Plant response rating, Panicum, Fall ([11]; 125 g ai/ha): 30 | Plant response rating, Sandbur ([12]; 16 g ai/ha): 0 | Plant response rating, Sandbur ([12]; 31 g ai/ha): 0 | Plant response rating, Sandbur ([12]; 62 g ai/ha): 0 | Plant response rating, Sandbur ([12]; 125 g ai/ha): 10 | Plant response rating, Ryegrass, Italian ([13]; 16 g ai/ha): 0 | Plant response rating, Ryegrass, Italian ([13]; 31 g ai/ha): 10 | Plant response rating, Ryegrass, Italian ([13]; 62 g ai/ha): 20 | Plant response rating, Ryegrass, Italian ([13]; 125 g ai/ha): 40

Fc1cccc(Oc2ncc(Cl)cn2)c1Oc1ncc(C(F)(F)F)cn1 [Compound 43, 5-chloro-2-[5-fluoro-6-[[5-(trifluoromethyl)-2-pyrimidinyl]oxy]phenoxy]pyrimidine]
Plant response rating, Field Bindweed ([1]; 31 g ai/ha): 55 | Plant response rating, Field Bindweed ([1]; 125 g ai/ha): 70 | Plant response rating, Waterhemp_RES1 ([2]; 31 g ai/ha): 65 | Plant response rating, Waterhemp_RES1 ([2]; 125 g ai/ha): 80 | Plant response rating, Arrowleaf Sida ([3]; 31 g ai/ha): 80 | Plant response rating, Arrowleaf Sida ([3]; 125 g ai/ha): 95 | Plant response rating, Waterhemp ([4]; 31 g ai/ha): 65 | Plant response rating, Waterhemp ([4]; 125 g ai/ha): 95 | Plant response rating, Beggarticks ([5]; 31 g ai/ha): 50 | Plant response rating, Beggarticks ([5]; 125 g ai/ha): 60 | Plant response rating, Waterhemp_RES2 ([6]; 31 g ai/ha): 65 | Plant response rating, Waterhemp_RES2 ([6]; 125 g ai/ha): 80 | Plant response rating, Pigweed, Palmer ([7]; 31 g ai/ha): 80 | Plant response rating, Pigweed, Palmer ([7]; 125 g ai/ha): 90 | Plant response rating, Poinsettia, Wild ([8]; 31 g ai/ha): 60 | Plant response rating, Poinsettia, Wild ([8]; 125 g ai/ha): 75 | Plant response rating, Kochia ([9]; 31 g ai/ha): 75 | Plant response rating, Kochia ([9]; 125 g ai/ha): 95 | Plant response rating, Crabgrass, Brazil ([10]; 31 g ai/ha): 25 | Plant response rating, Crabgrass, Brazil ([10]; 125 g ai/ha): 40 | Plant response rating, Panicum, Fall ([11]; 31 g ai/ha): 40 | Plant response rating, Panicum, Fall ([11]; 125 g ai/ha): 50 | Plant response rating, Sandbur ([12]; 31 g ai/ha): 0 | Plant response rating, Sandbur ([12]; 125 g ai/ha): 10 | Plant response rating, Ryegrass, Italian ([13]; 31 g ai/ha): 0 | Plant response rating, Ryegrass, Italian ([13]; 125 g ai/ha): 20
